Laboratory results: patent EP4745135A1 (Gluetacs Therapeutics (Shanghai) Co., Ltd., priority 2023, dated 2025)

Key:
[1] = system: Human multiple myeloma cell (MM.1S); test: Tumor cell proliferation inhibition (CellTiter-Meiluncell luminescent cell viability assay); conditions: Homo sapiens, MM1.S, 96 h; for inhibition at 0.01 µM: read-out: Inhibition Rate at 10 nM (%); for inhibition at 0.5 µM: read-out: Inhibition Rate at 500 nM (%)
[2] = system: Human multiple myeloma peripheral blood B lymphocyte cell (RPMI-8226); test: as above; conditions: RPMI-8226, 96 h; for inhibition at 0.5 µM: read-out: Inhibition Rate at 500 nM (%)
Description: (§1) The tumor cells used herein were cultured in a cell culture medium listed in table 2 at 37°C in an incubator with 5% CO2. Prior to experimentation, all cell lines used were correctly identified by STR profiling, and tested negative for mycoplasma contamination using a mycoplasma detection kit through routine screenings.
(§2) The IC50 values of the compounds of the present disclosure (including the compounds in Table 1 and Examples) were determined using the CellTiter-Meiluncell Luminescent Cell Viability Assay Kit from Dalian Meilun Biotech Co., Ltd. The detailed procedure is as follows: Tumor cells were seeded in 96-well cell culture plates at the densities specified in Table 3. On the following day, the test compounds of the present disclosure were subjected to serial dilution. The dilution can be performed according to one of the following two methods: • (1) The first dilution method: The test compounds of the present disclosure (including the compounds in Table 1 and Examples) were subjected to 5-fold serial dilutions starting from a highest concentration of 2000 µM, resulting in a total of 9 concentrations from high to low (2000, 400, 80, 16, 3.2, 0.64, 0.128, 0.0256, 0.00512 µM). Subsequently, 0.5 µL of the test compound dilution was transferred into the 96-well plate containing the cells, with each well containing 100 µL of cell culture medium. […] Into the 96-well plate, the diluted test compounds and corresponding detection reagents were added, resulting in final test compound concentrations of 500 nM and 10 nM, respectively. The experimental procedure is described below using the diluted 2 µM test compound as an example.
(§3) 0.5 µL of the aforementioned diluted compound of the present disclosure (including the compounds in Table 1 and Examples) was added to the seeded cells in 100 µL of medium, yielding a final test compound concentration of 10 nM. After the cells were treated with the compounds of the present disclosure for a specified period, the cell viability assay reagent was added to the culture medium according to the kit's instructions to determine cell viability. […] All controls were treated using the same procedure as the compounds of the present disclosure. The growth inhibition curves for the compounds of the present disclosure were plotted using Prism GraphPad software, and the IC50 values were calculated therefrom.

[3] = system: Human acute T lymphocytic leukemia cell (Molt4); test: as above; conditions: MOLT-4, 96 h
[4] = system: Human myeloid monocytic leukemia cell (MV-4-11); test: as above; conditions: MV4-11, 96 h
[5] = system: Human breast cancer cell (MCF-7); test: as above; conditions: MCF7, 96 h; for inhibition at 0.01 µM: read-out: Inhibition Rate at 10 nM (%); for inhibition at 0.5 µM: read-out: Inhibition Rate at 500 nM (%)
[6] = system: Human T cell acute lymphoblastic leukemia cell (CCRF-CEM); test: as above; conditions: 96 h
[7] = system: Human acute myeloid leukemia cell line: Kasumi-1; test: as above; conditions: Kasumi 1, 96 h
[8] = system: Human T lymphocytic leukemia cell line: Jurkat; test: as above; conditions: 96 h
Description: as §1, §2, §3

[9] = system: Human monocytic leukemia cell line: THP-1; test: as above; conditions: THP-1, 96 h; for inhibition at 0.01 µM: read-out: Inhibition Rate at 10 nM (%); for inhibition at 0.5 µM: read-out: Inhibition Rate at 500 nM (%)
Description: as §1, §2, §3

[10] = system: Human colon cancer cell line: SW620; test: as above; conditions: SW-620, 96 h; for inhibition at 0.01 µM: read-out: Inhibition Rate at 10 nM (%); for inhibition at 0.5 µM: read-out: Inhibition Rate at 500 nM (%)
Description: as §1, §2, §3

[11] = system: Human malignant melanoma cell line: A375; test: as above; conditions: A-375, 96 h; for inhibition at 0.01 µM: read-out: Inhibition Rate at 10 nM (%); for inhibition at 0.5 µM: read-out: Inhibition Rate at 500 nM (%)
Description: as §1, §2, §3

CK1α = target: T1, CK1α (Homo sapiens, UniProt P48729+Q96SW2); test: Western blot, degradation of substrate protein in hPBMCs; type: cell-based; conditions: 24 hours treatment, compounds at 50 nM and 500 nM (concentration behind the class not stated)
T1 construct: effects of the compounds of the present disclosure on the expression of target proteins in cells; endogenous in cells; host or cells: human PBMCs (Milecell Biotechnologies)

IKZF1 = target: T2, IKZF1 (Homo sapiens, UniProt Q13422+Q96SW2); test: as above; type: cell-based; conditions: 24 hours treatment, compounds at 50 nM and 500 nM (concentration behind the class not stated)
T2 construct: effects of the compounds of the present disclosure on the expression of target proteins in cells; endogenous in cells; host or cells: human PBMCs (Milecell Biotechnologies)

IKZF2 = target: T3, IKZF2 (Homo sapiens, UniProt Q96SW2+Q9UKS7); test: as above; type: cell-based; conditions: 24 hours treatment, compounds at 50 nM and 500 nM (concentration behind the class not stated)
T3 construct: effects of the compounds of the present disclosure on the expression of target proteins in cells; endogenous in cells; host or cells: human PBMCs (Milecell Biotechnologies)

IKZF3 = target: T4, IKZF3 (Homo sapiens, UniProt Q96SW2+Q9UKT9); test: as above; type: cell-based; conditions: 24 hours treatment, compounds at 50 nM and 500 nM (concentration behind the class not stated)
T4 construct: effects of the compounds of the present disclosure on the expression of target proteins in cells; endogenous in cells; host or cells: human PBMCs (Milecell Biotechnologies)

WEE1 = target: T5, WEE1 (Homo sapiens, UniProt P30291+Q96SW2); test: as above; type: cell-based; conditions: 24 hours treatment, compounds at 50 nM and 500 nM (concentration behind the class not stated)
T5 construct: effects of the compounds of the present disclosure on the expression of target proteins in cells; endogenous in cells; host or cells: human PBMCs (Milecell Biotechnologies)

GSPT1 = test: as above; type: cell-based, Human; conditions: 24 hours treatment, compounds at 50 nM and 500 nM (concentration behind the class not stated)
[12] = target: T6, human Cereblon WT GST-tagged protein (Homo sapiens, UniProt Q96SW2); test: CRBN-binding affinity, HTRF (CEREBLON BINDING kit); conditions: for inhibition at 0.5 µM: read-out: Inhibition Rate at 0.5 µM (%); for inhibition at 2 µM: read-out: Inhibition Rate at 2 µM (%)
T6 construct: purchased CISBIO 64BDCRBNPEH

[13] = read-out: Inhibition Rate at 10 nM (%)
[14] = read-out: Inhibition Rate at 500 nM (%)

T1 sequence (P48729 whole entry): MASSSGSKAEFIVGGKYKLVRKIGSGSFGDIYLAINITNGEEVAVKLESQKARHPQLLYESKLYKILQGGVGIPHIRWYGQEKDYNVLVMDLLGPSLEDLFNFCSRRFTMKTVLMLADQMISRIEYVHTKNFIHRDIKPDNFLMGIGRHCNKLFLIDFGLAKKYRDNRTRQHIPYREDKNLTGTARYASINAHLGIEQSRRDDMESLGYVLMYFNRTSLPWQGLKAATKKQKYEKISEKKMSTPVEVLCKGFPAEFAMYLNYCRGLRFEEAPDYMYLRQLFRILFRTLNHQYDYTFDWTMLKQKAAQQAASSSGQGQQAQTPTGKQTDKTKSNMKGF
T1 sequence (Q96SW2 whole entry): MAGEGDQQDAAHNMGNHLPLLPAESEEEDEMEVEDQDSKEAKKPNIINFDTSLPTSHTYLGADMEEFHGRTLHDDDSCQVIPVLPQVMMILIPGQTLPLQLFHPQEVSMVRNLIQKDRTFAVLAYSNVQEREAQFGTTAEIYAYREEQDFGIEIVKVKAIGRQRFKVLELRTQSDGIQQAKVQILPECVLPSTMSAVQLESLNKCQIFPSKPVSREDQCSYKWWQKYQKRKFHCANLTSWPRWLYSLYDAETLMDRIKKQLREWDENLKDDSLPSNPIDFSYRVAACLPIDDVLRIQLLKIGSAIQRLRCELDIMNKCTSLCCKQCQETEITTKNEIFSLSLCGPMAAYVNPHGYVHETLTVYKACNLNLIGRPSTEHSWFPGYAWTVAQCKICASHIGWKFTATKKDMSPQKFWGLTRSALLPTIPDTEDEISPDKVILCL
T1 sequence (Q16531 whole entry partner): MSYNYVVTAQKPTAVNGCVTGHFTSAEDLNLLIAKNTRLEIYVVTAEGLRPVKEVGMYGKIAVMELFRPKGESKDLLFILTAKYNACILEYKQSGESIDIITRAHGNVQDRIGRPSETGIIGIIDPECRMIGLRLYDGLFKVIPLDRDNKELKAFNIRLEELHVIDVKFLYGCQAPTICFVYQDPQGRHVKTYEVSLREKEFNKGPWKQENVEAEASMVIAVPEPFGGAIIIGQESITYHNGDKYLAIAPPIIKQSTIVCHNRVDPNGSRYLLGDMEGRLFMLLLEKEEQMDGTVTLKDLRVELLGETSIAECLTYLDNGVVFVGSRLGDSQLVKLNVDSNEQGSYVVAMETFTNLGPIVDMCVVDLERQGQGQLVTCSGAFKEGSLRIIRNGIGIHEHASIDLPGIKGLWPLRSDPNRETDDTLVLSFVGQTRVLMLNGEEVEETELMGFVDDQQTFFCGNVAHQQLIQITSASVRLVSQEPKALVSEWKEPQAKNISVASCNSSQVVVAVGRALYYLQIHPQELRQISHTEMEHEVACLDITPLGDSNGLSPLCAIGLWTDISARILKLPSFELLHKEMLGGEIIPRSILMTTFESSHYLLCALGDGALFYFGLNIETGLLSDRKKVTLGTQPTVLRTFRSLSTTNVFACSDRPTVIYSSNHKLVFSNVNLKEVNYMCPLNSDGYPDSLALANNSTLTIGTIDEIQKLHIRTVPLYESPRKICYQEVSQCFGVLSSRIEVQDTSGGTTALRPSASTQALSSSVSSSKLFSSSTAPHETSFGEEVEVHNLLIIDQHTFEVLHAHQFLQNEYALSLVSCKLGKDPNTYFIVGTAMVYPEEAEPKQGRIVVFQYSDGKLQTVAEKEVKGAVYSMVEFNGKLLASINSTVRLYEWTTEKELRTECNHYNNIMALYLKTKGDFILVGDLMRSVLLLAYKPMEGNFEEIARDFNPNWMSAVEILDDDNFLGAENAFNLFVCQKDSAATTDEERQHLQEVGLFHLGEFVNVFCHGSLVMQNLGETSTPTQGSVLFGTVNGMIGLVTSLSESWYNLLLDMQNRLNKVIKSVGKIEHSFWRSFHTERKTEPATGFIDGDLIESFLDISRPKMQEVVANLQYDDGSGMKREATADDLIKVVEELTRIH
T6 sequence (Q96SW2 whole entry): as the sequence (Q96SW2 whole entry) above
T4 sequence (Q9UKT9 whole entry): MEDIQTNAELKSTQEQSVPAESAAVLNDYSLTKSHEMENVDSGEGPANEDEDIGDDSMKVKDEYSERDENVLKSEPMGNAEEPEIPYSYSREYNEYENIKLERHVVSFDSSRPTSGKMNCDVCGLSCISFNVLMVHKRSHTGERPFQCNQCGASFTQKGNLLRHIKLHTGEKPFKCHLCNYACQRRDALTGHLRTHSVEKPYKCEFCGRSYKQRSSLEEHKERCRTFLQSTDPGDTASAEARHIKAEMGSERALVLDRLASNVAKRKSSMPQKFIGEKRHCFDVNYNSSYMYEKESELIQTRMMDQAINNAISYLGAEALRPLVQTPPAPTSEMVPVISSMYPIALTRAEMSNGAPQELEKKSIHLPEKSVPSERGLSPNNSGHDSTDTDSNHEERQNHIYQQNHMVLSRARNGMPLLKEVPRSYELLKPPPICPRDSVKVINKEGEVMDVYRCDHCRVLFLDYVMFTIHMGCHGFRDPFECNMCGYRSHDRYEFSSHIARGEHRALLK
T4 sequence (Q96SW2 whole entry): as the sequence (Q96SW2 whole entry) above
T4 sequence (Q16531 whole entry partner): as the sequence (Q16531 whole entry partner) above
T2 sequence (Q13422 whole entry): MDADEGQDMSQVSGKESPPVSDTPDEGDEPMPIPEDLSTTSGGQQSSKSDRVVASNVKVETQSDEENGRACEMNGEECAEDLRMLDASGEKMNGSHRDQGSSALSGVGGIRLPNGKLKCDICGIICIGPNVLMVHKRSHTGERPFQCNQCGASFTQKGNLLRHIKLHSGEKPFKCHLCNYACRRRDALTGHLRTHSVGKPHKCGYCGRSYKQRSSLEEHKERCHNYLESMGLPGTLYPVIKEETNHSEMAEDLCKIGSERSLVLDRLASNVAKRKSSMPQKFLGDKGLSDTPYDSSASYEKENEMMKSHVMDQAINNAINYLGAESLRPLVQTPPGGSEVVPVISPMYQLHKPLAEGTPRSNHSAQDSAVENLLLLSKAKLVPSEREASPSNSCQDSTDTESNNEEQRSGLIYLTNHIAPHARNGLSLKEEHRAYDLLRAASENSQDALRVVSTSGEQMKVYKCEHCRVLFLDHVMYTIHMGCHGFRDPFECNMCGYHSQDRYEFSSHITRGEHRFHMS
T2 sequence (Q96SW2 whole entry): as the sequence (Q96SW2 whole entry) above
T2 sequence (Q16531 whole entry partner): as the sequence (Q16531 whole entry partner) above
T3 sequence (Q9UKS7 whole entry): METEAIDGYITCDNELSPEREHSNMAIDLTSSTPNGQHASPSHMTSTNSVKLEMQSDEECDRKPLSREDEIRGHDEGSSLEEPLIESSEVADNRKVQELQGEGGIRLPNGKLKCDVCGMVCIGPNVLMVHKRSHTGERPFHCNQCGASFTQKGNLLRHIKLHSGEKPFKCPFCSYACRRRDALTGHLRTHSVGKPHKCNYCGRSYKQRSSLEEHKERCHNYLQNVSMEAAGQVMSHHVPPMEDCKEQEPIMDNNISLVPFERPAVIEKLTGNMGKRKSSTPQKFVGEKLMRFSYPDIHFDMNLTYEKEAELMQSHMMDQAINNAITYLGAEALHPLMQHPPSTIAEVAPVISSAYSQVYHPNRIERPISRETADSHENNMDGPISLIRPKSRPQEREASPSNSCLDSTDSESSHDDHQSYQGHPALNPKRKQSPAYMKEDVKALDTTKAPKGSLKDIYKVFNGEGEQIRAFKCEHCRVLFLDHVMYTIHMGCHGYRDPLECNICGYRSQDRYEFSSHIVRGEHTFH
T3 sequence (Q96SW2 whole entry): as the sequence (Q96SW2 whole entry) above
T3 sequence (Q16531 whole entry partner): as the sequence (Q16531 whole entry partner) above
T5 sequence (P30291 whole entry): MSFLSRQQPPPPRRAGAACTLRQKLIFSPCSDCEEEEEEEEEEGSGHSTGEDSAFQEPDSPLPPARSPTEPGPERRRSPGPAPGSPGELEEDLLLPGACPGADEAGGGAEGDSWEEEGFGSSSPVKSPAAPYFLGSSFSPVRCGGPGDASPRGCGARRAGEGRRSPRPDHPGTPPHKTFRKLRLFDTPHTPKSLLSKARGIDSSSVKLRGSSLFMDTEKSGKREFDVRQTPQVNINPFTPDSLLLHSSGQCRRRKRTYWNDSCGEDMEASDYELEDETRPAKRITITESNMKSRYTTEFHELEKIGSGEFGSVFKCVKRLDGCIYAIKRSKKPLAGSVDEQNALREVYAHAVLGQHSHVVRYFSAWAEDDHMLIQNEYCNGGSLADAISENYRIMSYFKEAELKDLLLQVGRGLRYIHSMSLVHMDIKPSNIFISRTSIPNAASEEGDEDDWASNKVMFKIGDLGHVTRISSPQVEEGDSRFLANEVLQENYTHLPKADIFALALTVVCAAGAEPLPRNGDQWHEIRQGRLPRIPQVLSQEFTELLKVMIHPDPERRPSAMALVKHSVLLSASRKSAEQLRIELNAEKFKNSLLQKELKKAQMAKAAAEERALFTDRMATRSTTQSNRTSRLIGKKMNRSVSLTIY
T5 sequence (Q96SW2 whole entry): as the sequence (Q96SW2 whole entry) above
T5 sequence (Q16531 whole entry partner): as the sequence (Q16531 whole entry partner) above

| Structure (SMILES) | inhibition at 0.01 µM [1] | inhibition at 0.5 µM [1] | inhibition at 0.5 µM [2] | inhibition at 0.01 µM [5] | inhibition at 0.01 µM [9] | inhibition at 0.5 µM [9] | inhibition at 0.01 µM [10] | inhibition at 0.5 µM [10] | inhibition at 0.01 µM [11] | inhibition at 0.5 µM [11] | CK1α substrate protein remaining % (CK1α) | IKZF 1 substrate protein remaining % (IKZF1) | IKZF2 substrate protein remaining % (IKZF2) | IKZF3 substrate protein remaining % (IKZF3) | Wee1 substrate protein remaining % (WEE1) | GSPT1 substrate protein remaining % (GSPT1) | inhibition at 0.5 µM [12] | inhibition at 2 µM [12] | inhibition at 0.5 µM [5] | also measured |
| --- | --- | --- | --- | --- | --- | --- | --- | --- | --- | --- | --- | --- | --- | --- | --- | --- | --- | --- | --- | --- |
| Nc1cccc2c1CN(C1CCC(=O)NC1=O)C2=O (centres unmarked) [lenalidomide, reference compound] | 10 to 20% | 30 to 40% | 10 to 20% | 0 to 5% | 0 to 5% | 5 to 10% | 5 to 10% | 5 to 10% | 5 to 10% | 5 to 10% | – | – | – | – | – | – | – | – | – | inhibition at 0.01 µM [3, 13]: 0 to 5%; inhibition at 0.5 µM [3, 14]: 0 to 5%; inhibition at 0.01 µM [4, 13]: 10 to 18%; inhibition at 0.5 µM [4, 14]: 10 to 18%; inhibition at 0.01 µM [6, 13]: 10 to 20%; inhibition at 0.5 µM [6, 14]: 10 to 20%; inhibition at 0.01 µM [7, 13]: 5 to 10%; inhibition at 0.5 µM [7, 14]: 0 to 5%; inhibition at 0.01 µM [8, 13]: 20 to 30%; inhibition at 0.5 µM [8, 14]: 10 to 20% |
| O=C1CCC(N2Cc3cc(CN4CC=C(c5ncnc6sc(-c7ccccc7)cc56)CC4)ccc3C2=S)C(=O)N1 (centres unmarked) [GT-09319, 3-(5-((4-(6-phenylthieno[2,3-d]pyrimidin-4-yl)-3,6-dihydropyridin-1(2H)-yl)methyl)-1-thioxoisoindolin-2-yl)piperidine-2,6-dione] | – | – | 50 to 60% | 20 to 30% | 80 to 100% | 80 to 100% | 70 to 80% | 80 to 100% | 40 to 50% | 80 to 100% | B (80%< substrate protein remaining %≤ 100%) | A (0% ≤ substrate protein remaining % ≤ 80%) | A (0% ≤ substrate protein remaining % ≤ 80%) | A (0% ≤ substrate protein remaining % ≤ 80%) | A (0% ≤ substrate protein remaining % ≤ 80%) | A (0% ≤ substrate protein remaining % ≤ 80%) | 60 to 80% | 80 to 100% | 70 to 80% | inhibition at 0.01 µM [2, 13]: 5 to 10% |
| O=C1CCC(N2Cc3cc(CN4CC=C(c5ncc6ccsc6n5)CC4)ccc3C2=S)C(=O)N1 (centres unmarked) [GT-09327, 3-(5-((4-(thieno[2,3-d]pyrimidin-2-yl)-3,6-dihydropyridin-1(2H)-yl)methyl)-1-thioxoisoindolin-2-yl)piperidine-2,6-dione] | – | – | – | – | 20 to 30% | 80 to 100% | 30 to 40% | 80 to 100% | 20 to 30% | 80 to 100% | B (80%< substrate protein remaining %≤ 100%) | B (80%< substrate protein remaining %≤ 100%) | A (0% ≤ substrate protein remaining % ≤ 80%) | B (80%< substrate protein remaining %≤ 100%) | A (0% ≤ substrate protein remaining % ≤ 80%) | A (0% ≤ substrate protein remaining % ≤ 80%) | 60 to 80% | 80 to 100% | – | – |
| Cc1cc2c(C3=CCN(Cc4ccc5c(c4)CN(C4CCC(=O)NC4=O)C5=S)CC3)ncnc2s1 (centres unmarked) [GT-09316, 3-(5-((4-(6-methylthieno[2,3-d]pyrimidin-4-yl)-3,6-dihydropyridin-1(2H)-yl)methyl)-1-thioxoisoindolin-2-yl)piperidine-2,6-dione] | – | – | – | – | 5 to 10% | 80 to 100% | 10 to 20% | 80 to 100% | 30 to 40% | 80 to 100% | B (80%< substrate protein remaining %≤ 100%) | A (0% ≤ substrate protein remaining % ≤ 80%) | B (80%< substrate protein remaining %≤ 100%) | A (0% ≤ substrate protein remaining % ≤ 80%) | B (80%< substrate protein remaining %≤ 100%) | A (0% ≤ substrate protein remaining % ≤ 80%) | 60 to 80% | 80 to 100% | – | – |
| Cc1sc2ncnc(C3=CCN(Cc4ccc5c(c4)CN(C4CCC(=O)NC4=O)C5=S)CC3)c2c1C (centres unmarked) [GT-09318, 3-(5-((4-(5,6-dimethylthieno[2,3-d]pyrimidin-4-yl)-3,6-dihydropyridin-1(2H)-yl)methyl)-1-thioxoisoindolin-2-yl)piperidine-2,6-dione] | – | – | – | – | 10 to 20% | 80 to 100% | 10 to 20% | 80 to 100% | 20 to 30% | 60 to 70% | B (80%< substrate protein remaining %≤ 100%) | B (80%< substrate protein remaining %≤ 100%) | B (80%< substrate protein remaining %≤ 100%) | A (0% ≤ substrate protein remaining % ≤ 80%) | A (0% ≤ substrate protein remaining % ≤ 80%) | A (0% ≤ substrate protein remaining % ≤ 80%) | 53 to 60% | 80 to 100% | – | – |
| CC(C)c1cc2c(C3=CCN(Cc4ccc5c(c4)CN(C4CCC(=O)NC4=O)C5=S)CC3)ncnc2s1 (centres unmarked) [GT-09317, 3-(5-((4-(6-isopropylthieno[2,3-d]pyrimidin-4-yl)-3,6-dihydropyridin-1(2H)-yl)methyl)-1-thioxoisoindolin-2-yl)piperidine-2,6-dione] | 10 to 20% | 60 to 70% | – | 5 to 10% | 80 to 100% | 100 to 110% | 80 to 100% | 100 to 110% | 50 to 60% | 80 to 100% | B (80%< substrate protein remaining %≤ 100%) | A (0% ≤ substrate protein remaining % ≤ 80%) | A (0% ≤ substrate protein remaining % ≤ 80%) | A (0% ≤ substrate protein remaining % ≤ 80%) | A (0% ≤ substrate protein remaining % ≤ 80%) | A (0% ≤ substrate protein remaining % ≤ 80%) | 40 to 53% | 80 to 100% | 80 to 100% | – |
